Source: patent publication US9163021B2, “Pyrrolo[3,2-c]pyridine tropomyosin-related kinase inhibitors” (Pfizer Limited, priority 2012, dated 2015)

Target: TRKA (Homo sapiens (Human), UniProt P04629)
Assay: Isolated TRK enzyme assay (HTRF KinEASE-TK), PV3144 TrkA enzyme assay
Assay type: biochemical
Details: arithmetic mean where more than one reading
Outline: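 His-tagged TrkA cytoplasmic domain preactivated with ATP 20 min, then with compound 20 min at room temperature before 1 µM final biotin-TK substrate; HTRF 665/620 nm read.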

Chain of TRKA (P04629 441-796): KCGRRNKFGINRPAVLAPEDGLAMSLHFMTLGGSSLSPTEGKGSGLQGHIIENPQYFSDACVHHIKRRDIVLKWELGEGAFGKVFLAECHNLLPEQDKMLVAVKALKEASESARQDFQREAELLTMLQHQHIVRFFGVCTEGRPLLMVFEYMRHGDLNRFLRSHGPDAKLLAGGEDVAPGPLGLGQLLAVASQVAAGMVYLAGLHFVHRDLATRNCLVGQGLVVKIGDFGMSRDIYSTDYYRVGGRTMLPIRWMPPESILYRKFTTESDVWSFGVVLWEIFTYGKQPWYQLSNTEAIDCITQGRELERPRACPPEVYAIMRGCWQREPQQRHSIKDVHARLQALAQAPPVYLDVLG

| SMILES | IC50 |
| --- | --- |
| CC(C)n1cc(CC(=O)Nc2cncc(C(=O)c3cn(C(C)C)c4ccncc34)c2)c(C(F)(F)F)n1 [Example 50, N-(5-{[1-(propan-2-yl)-1H-pyrrolo[3,2-c]pyridin-3-yl]carbonyl}pyridin-3-yl)-2-[1-(propan-2-yl)-3-(trifluoromethyl)-1H-pyrazol-4-yl]acetamide] | 133 nM |
| CC(C)n1cc(C(=O)c2cc(NC(=O)Cn3cc(C(F)(F)F)cn3)ccn2)c2cnccc21 [Example 30, N-(2-{[1-(propan-2-yl)-1H-pyrrolo[3,2-c]pyridin-3-yl]carbonyl}pyridin-4-yl)-2[4-(trifluoromethyl)-1H-pyrazol-1-yl]acetamide] | 13.3 nM |
| Cc1cc(C(F)(F)F)nn1CC(=O)Nc1cncc(C(=O)c2cn(C(C)CO)c3ccncc23)c1 (single isomer, unassigned) [Example 63, N-(5-{[1-(1-hydroxypropan-2-yl)-1H-pyrrolo[3,2-c]pyridin-3-yl]carbonyl}pyridin-3-yl)-2-[5-methyl-3-(trifluoromethyl)-1H-pyrazol-1-yl]acetamide] | 28.8 nM |
| CC(C)n1cc(C(=O)c2cncc(NC(=O)Cc3cncn3C)c2)c2cnccc21 [Example 45, 2-(1-methyl-1H-imidazol-5-yl)-N-(5-{[1-(propan-2-yl)-1H-pyrrolo[3,2-c]pyridin-3-yl]carbonyl}pyridin-3-yl)acetamide] | 1570 nM |
| Cc1cc(C(F)(F)F)nn1CC(=O)Nc1ccnc(C(=O)c2cn(C(C)C)c3ccncc23)c1 [Example 28, 2-[5-methyl-3-(trifluoromethyl)-1H-pyrazol-1-yl]-N-(2-{[1-(propan-2-yl)-1H-pyrrolo[3,2-c]pyridin-3-yl]carbonyl}pyridin-4-yl)acetamide] | 10.6 nM |
| CC(CO)n1cc(C(=O)c2cc(NC(=O)Cc3ccc(Cl)cn3)ccn2)c2cnccc21 (single isomer, unassigned) [Example 17, 2-(5-chloropyridin-2-yl)-N-(2-{[1-(1-hydroxypropan-2-yl)-1H-pyrrolo[3,2-c]pyridin-3-yl]carbonyl}pyridin-4-yl)acetamide] | 106 nM |
| CC(C)n1cc(C(=O)c2cncc(NC(=O)Cn3cc(C4CC4)nn3)c2)c2cnccc21 [Example 51, 2-(4-cyclopropyl-1H-1,2,3-triazol-1-yl)-N-(5-{[1-(propan-2-yl)-1H-pyrrolo[3,2-c]pyridin-3-yl]carbonyl}pyridin-3-yl)acetamide] | 68.2 nM |
| CC(C)(CO)n1cc(C(=O)c2cncc(NC(=O)Cc3cccc(C(F)(F)F)c3)c2)c2cncc(F)c21 [Example 5, N-{5-[7-Fluoro-1-(2-hydroxy-1,1-dimethyl-ethyl)-1H-pyrrolo[3,2-c]pyridine-3-carbonyl]-pyridin-3-yl}-2-(3-trifluoromethyl-phenyl)-acetamide] | 4.41 nM |
| CC(C)n1cc(C(=O)c2cncc(NC(=O)Cc3ccc(Cl)cn3)c2)c2cnccc21 [Example 22, 2-(5-chloropyridin-2-yl)-N-(5-{[1-(propan-2-yl)-1H-pyrrolo[3,2-c]pyridin-3-yl]carbonyl}pyridin-3-yl)acetamide] | 9.64 nM |
| Cc1nc(CC(=O)Nc2cncc(C(=O)c3cn(C(C)C)c4ccncc34)c2)c(C2CC2)o1 [Example 24, 2-(5-cyclopropyl-2-methyl-1,3-oxazol-4-yl)-N-(5-{[1-(propan-2-yl)-1H-pyrrolo[3,2-c]pyridin-3-yl]carbonyl}pyridin-3-yl)acetamide] | 124 nM |

Now from value to compound:

| IC50 | SMILES |
| --- | --- |
| 20.4 nM | Cc1cc(C(F)(F)F)nn1CC(=O)Nc1cncc(C(=O)c2cn(C(C)CO)c3c(F)cncc23)c1 (single isomer, unassigned) [Example 216, N-(5-{[7-fluoro-1-(1-hydroxypropan-2-yl)-1H-pyrrolo[3,2-c]pyridin-3-yl]carbonyl}pyridin-3-yl)-2-[5-methyl-3-(trifluoromethyl)-1H-pyrazol-1-yl]acetamide] |
| 4310 nM | CC(C)c1ccnn1CC(=O)Nc1cc(C(=O)c2cn(CCO)c3ccncc23)ccn1 [Example 147, N-(4-{[1-(2-hydroxyethyl)-1H-pyrrolo[3,2-c]pyridin-3-yl]carbonyl}pyridin-2-yl)-2-[5-(propan-2-yl)-1H-pyrazol-1-yl]acetamide] |
| 8990 nM | Cc1noc(C)c1CC(=O)Nc1cc(C(=O)c2cn(C(C)C)c3ccncc23)ccn1 [Example 160, 2-(3,5-dimethyl-1,2-oxazol-4-yl)-N-(4-{[1-(propan-2-yl)-1H-pyrrolo[3,2-c]pyridin-3-yl]carbonyl}pyridin-2-yl)acetamide] |
| 37.6 nM | CC(CO)n1cc(C(=O)c2cncc(NC(=O)Cc3ccc(Cl)cn3)c2)c2cnccc21 (single isomer, unassigned) [Example 66, 2-(5-chloropyridin-2-yl)-N-(5-{[1-(1-hydroxypropan-2-yl)-1H-pyrrolo[3,2-c]pyridin-3-yl]carbonyl}pyridin-3-yl)acetamide] |
| 43.1 nM | CC(C)(CO)n1cc(C(=O)c2cncc(NC(=O)Cn3ccc(C(F)(F)F)n3)c2)c2cnccc21 [Example 236, N-(5-{[1-(1-hydroxy-2-methylpropan-2-yl)-1H-pyrrolo[3,2-c]pyridin-3-yl]carbonyl}pyridin-3-yl)-2-[3-(trifluoromethyl)-1H-pyrazol-1-yl]acetamide] |
| 64 nM | CC(C)n1cc(C(=O)c2ccnc(NC(=O)Cc3ccccc3)c2)c2cnccc21 [Example 107, 2-phenyl-N-(4-{[1-(propan-2-yl)-1H-pyrrolo[3,2-c]pyridin-3-yl]carbonyl}pyridin-2-yl)acetamide] |
| 96.8 nM | CC(C)c1ccnn1CC(=O)Nc1cc(C(=O)c2cn(C(C)C)c3ccncc23)ccn1 [Example 111, 2-[5-(propan-2-yl)-1H-pyrazol-1-yl]-N-(4-{[1-(propan-2-yl)-1H-pyrrolo[3,2-c]pyridin-3-yl]carbonyl}pyridin-2-yl)acetamide] |
| 125 nM | CC(CO)n1cc(C(=O)c2cncc(NC(=O)Cc3ccc(C#N)cc3)c2)c2cnccc21 (single isomer, unassigned) [Example 72, 2-(4-cyanophenyl)-N-(5-{[1-(1-hydroxypropan-2-yl)-1H-pyrrolo[3,2-c]pyridin-3-yl]carbonyl}pyridin-3-yl)acetamide] |
| 3180 nM | Cc1n[nH]c(CC(=O)Nc2cc(C(=O)c3cn(C(C)C)c4ccncc34)ccn2)n1 [Example 184, 2-(3-methyl-1H-1,2,4-triazol-5-yl)-N-(4-{[1-(propan-2-yl)-1H-pyrrolo[3,2-c]pyridin-3-yl]carbonyl}pyridin-2-yl)acetamide] |
| 29.7 nM | CC(CO)n1cc(C(=O)c2cncc(NC(=O)Cn3ccc(C(F)(F)F)n3)c2)c2cncc(F)c21 (single isomer, unassigned) [Example 208, N-(5-{[7-fluoro-1-(1-hydroxypropan-2-yl)-1H-pyrrolo[3,2-c]pyridin-3-yl]carbonyl}pyridin-3-yl)-2-[3-(trifluoromethyl)-1H-pyrazol-1-yl]acetamide] |
| 1860 nM | CC(C)n1cc(C(=O)c2ccnc(NC(=O)Cc3cncs3)c2)c2cnccc21 [Example 185, N-(4-{[1-(propan-2-yl)-1H-pyrrolo[3,2-c]pyridin-3-yl]carbonyl}pyridin-2-yl)-2(1,3-thiazol-5-yl)acetamide] |
| 271 nM | CC(C)c1cn(CC(=O)Nc2cc(C(=O)c3cn(CCO)c4ccncc34)ccn2)nn1 [Example 159, N-(4-{[1-(2-hydroxyethyl)-1H-pyrrolo[3,2-c]pyridin-3-yl]carbonyl}pyridin-2-yl)-2-[4-(propan-2-yl)-1H-1,2,3-triazol-1-yl]acetamide] |
